Test results published in paper doi:10.1101/2024.07.10.602890, “H105A peptide eye drops promote photoreceptor survival in murine and human models of retinal degeneration” (bioRxiv, 2024).
Ends that are not written are not given here.

Columns and labels:
[1] = tested on: rd10 and rd10/Serpinf1−/− mice; test: Retinal histology (H&E), OS length and ONL thickness spider plots after peptide eye drops; assay type: in vivo, mouse; conditions: daily eye drops 1 mg/ml; rd10 and rd10/Serpinf1−/− mice; P21
Procedure: Fig. 4: Effect of eyedrops of 17-mer and H105A peptides on photoreceptor morphology of rd10 and rd10/Serpinf1−/− mice (A and B) Histological Evaluation. Representative microphotographs of retina sections from rd10 (A) and rd10/Serpinf1−/− (B) mice treated with 17-mer, H105A, or R99A peptides at 1 mg/ml, or with vehicle (HBSS), compared to wild type C57Bl/6J mice. Sections were stained with hematoxylin and eosin. Spider Plot illustrate the thickness of the outer nuclear layer (ONL) in rd10 (C) and rd10/Serpinf1−/− (D) mice. Five retinas per group were analyzed and each data point represents the average ± SEM per location relative to the optic nerve (ON), analyzed using One-way ANOVA. Statistics for comparisons between H105A and vehicle is indicated by #p < 0.05, #p < 0.05, ##p < 0.01, ###p < 0.001). Statistics for comparisons between H105A and 17-mer is indicated by *p < 0.05. Scale bar = 50 μm.
Both eyes were oriented before enucleation to allow sectioning along the dorsal/ventral axis. Enucleated eyes from rd10 and rd10 × Serpinf1^−/− mice were incised in the cornea and fixed in 2.5% glutaraldehyde for 20 min and then in 10% neutral buffered formalin at 4°C for at least 48 h, followed by paraffin embedding, sectioning, and staining with either H&E or immunofluorescence procedures, as previously described ([28]). For fluorescence microscopy, antibodies, and 0.1 μg/ml DAPI were used to immunostain and nuclei counterstain the sections, respectively. Antibodies used in the study are in Table S3. Images were acquired using a ZEIS 700 confocal microscope. Fluorescence intensity was quantified using ImageJ as previously described ([14], [26]).
To generate spider plots, the ONL thickness was measured from images acquired with light microscopy of the retina sections stained with H&E or images of retina sections stained with DAPI with a dorsal-ventral orientation. The ONL thickness in the entire retina sections was measured at 5 different positions from both sides of the optic nerve (ON) using ImageJ, as described before ([28]). Alternatively, for DAPI stained images, a customed macro implemented in ImageJ was used to select only the ONL.
(§1) Figure S2. Effects of extending the timeline or administering eye drops of 17-mer[H105A] peptide every other day in rd10 mic e.
Eye drops of H105A peptide solution were administered to r d1 0 mice either daily (Fig. S2A) or every other day (Fi g. S 2D). A total of 5 µl of a solution containing H105A peptide at 1 mg/ml in HBSS were applied as eye drops. The vehicle HBSS was added as eye drops in the contralateral eyes. […]
ONL thickness in r d10 mice compared to vehicle was also observed (Fi g. S 2E), with an improvement in a- […]
efficacy of peptide H105A eye drops either daily or every other day in an extended timeline to stabilize photoreceptor morphology and light response function loss in r d10 mice, however, these were less efficacious than daily H105A peptide eye drops.
(A) Scheme showing a timeline of peptide administration via daily eye drops of H105A peptide to r d10 mice between P15 and P2 4. […]
(B) Representative microphotographs of retinal cross sections of r d1 0 treated as in Fig. S2A and stained with hematoxylin and eosin are shown. […]
(D) Scheme showing a timeline of peptide administration via eye drops of H105A peptide to rd10 mice starting at P15 every other day until P23. Assays were at P25.
(E) Representative microphotographs of retinal cross sections of r d1 0 treated as in Fig. S2D and stained […]
average ± SD per location relative to the ON per genotype by unpaired t-test. *p < 0.05, […]
(F) ERG of r d1 0 mice at P25 and treated as in Fig. S2D were performed in response to a STR. […]

[2] = tested on: rd10 and rd10/Serpinf1−/− mice; test: In vivo photoreceptor cell death (PS externalization) by PSVue-550 fluorescence fundoscopy; design: species or system mouse
Procedure: Fig. 2: Effect of PEDF peptide eye drops on protection against photoreceptor cell death in rd10 and rd10/Serpinf1^−/− mice (A) Illustration of the experimental timeline of peptide application. Eye drops containing 5 μl of 17-mer, H105A, or R99A peptides in HBSS were administered daily to eyes of rd10 and rd10/Serpinf1^−/− mice from P15 to P20. Vehicle (HBSS) was applied in contralateral eyes. At P20, PSVue® was applied via eye drops, and fluorescence fundoscopy was conducted at P21 to assess photoreceptor cell death. RE and LE refer to the right and left eyes, respectively. (B) Fluorescence fundoscopy micrographs. Representative fluorescence fundoscopy images of retinas from mice treated as in Panel A with eyedrops of 1 mg/ml of each peptide. Quantification of fluorescence intensity was performed using ImageJ, with average intensity values corrected for background fluorescence from eyes that had not received PSVue or peptides. […] Statistical significance was determined by unpaired t-test (****p < 0.0001). […] Representative fluorescence fundoscopy micrographs showing retinas treated with varying concentrations of 17-mer and H105A peptides (0.0 mg/ml to 1.0 mg/ml) in rd10 and rd10/SerpinfT^−/− mice. Fluorescence intensity was quantified and analyzed using Sigmoidal interpolation in GraphPad. […]

[3] = tested on: rd10 and rd10/Serpinf1−/− mice; test: Electroretinography (ERG) a-wave and b-wave after peptide eye drops; assay type: in vivo, mouse; conditions: rd10 mice; daily eye drops of AlexaFl488-labelled peptide P15-P20, ERG at P21; n = 3 per condition
Source text: Fig. 5: Effect of daily eyedrops of PEDF peptides on ERG a-wave and b-wave retinal function (A and B) Representative ERG waveforms for rd10 (A) and rd10/Serpinf1^−/− (B) mice at P21 in response to a light flash (1 cd.s/m^2). Amplitude (y-axis) is plotted against time in milliseconds (ms, x-axis). Treatments are indicated to the right of each plot and are color coded, with control wild type C57Bl/6J mice without peptide treatment shown in blue. A-wave and b-wave are indicated by arrows. (C and D) Photoreceptor a-wave amplitudes. Averages of photoreceptor a-wave amplitudes for rd10 (C) and rd10/Serpinf1^−/− (D) mice as a function of light intensity (cd/s.m^2, x-axis). Responses of animals treated with 17-mer are shown in green, H105A in black, and vehicle (HBSS) in red. Wildtype responses are shown in blue. (E and F) Bipolar cell b-wave amplitudes. Averages of bipolar cell b-wave amplitudes for rd10 (E) and rd10/Serpinf1^−/− (F) mice as a function of light intensity (cd/s.m^2, x-axis), with treatments indicated as in panels (C) and (D). The number of mice evaluated for the data shown in Panels C-F were n = 8 for each rd10, rd10/Serpinf1^−/− and wild type. Each data point represents the average ± SD of each genotype, analyzed by unpaired t-test. Statistical significance between H105A and vehicle is indicated by ##p < 0.01, ###p < 0.001, ####p < 0.0001, and between H105A and 17-mer by **p < 0.01, ***p < 0.001, ****p < 0.0001.
Electroretinogram (ERG) for rd10 and rd10/Serpinf1^−/− mice were recorded in both eyes of each animal using an Espion E2 system with ColorDome (Diagnosys LLC) with a heated surface and mice were dark-adapted overnight as previously described ([29]). Mice were placed on the heated surface and electrodes were placed in the mouth and a subdermal platinum needle electrode was placed in the back of the mouse to serve as ground. Responses were elicited with increasing light impulses with intensity from 0.0001 to 10 cd-seconds per meter squared (cd.s/m^2). Amplitudes for a-wave were measured from stimulus to the trough of the a-wave and b-wave amplitudes were measured from a-wave to b-wave trough or peak. The values from the a and b waves for both eyes were exported to Microsoft Excel to obtained amplitude values for each mouse.
as §1
Eye drops of H105A peptide solution were administered to r d1 0 mice either daily (Fig. S2A) or every other day (Fi g. S 2D). A total of 5 µl of a solution containing H105A peptide at 1 mg/ml in HBSS were applied as eye drops. The vehicle HBSS was added as eye drops in the contralateral eyes. When eye […]
intensity light at P25 (Fig. S2C). When eye drops of H105A were added every other day, a rescue in the ONL thickness in r d10 mice compared to vehicle was also observed (Fi g. S 2E), with an improvement in a- […]
efficacy of peptide H105A eye drops either daily or every other day in an extended timeline to stabilize photoreceptor morphology and light response function loss in r d10 mice, however, these were less efficacious than daily H105A peptide eye drops. […]
(C) ERG of r d1 0 mice at P25 and treated as in Fi g. […] For ERG data shown, the number of mice evaluated were n =5 for rd10 and each data point corresponds to the average ± SD of each genotype by unpaired t-test. *p < 0.05, **p < 0.01, * ** p < 0 .001 , ****p < 0.0001. […]

For QATESIIHRALYYDLIS [R99A], the “outer nuclear layer (ONL) thickness vs vehicle-treated or untreated eyes” value [1] was “had no effect”, the “photoreceptor outer segment (OS) length vs vehicle-treated or untreated eyes” value [1] was “had no effect” and the “PS externalization (PSVue-550 fundi fluorescence) vs vehicle (HBSS) eye drops” value ([2]; daily eye drops 5 μl of 1 mg/ml, P15 to P20, fundoscopy at P21, 5 eyes per condition) was “no significant efficacy”.
In the case of “AlexaFl-QRTESIIARALYYDLIS-COOH [AlexaFl-488-H105A, H105A peptide conjugated to Alexa Fluor 488 dye]”, the “neuroprotective activity of labelled peptides as assessed by ERG” value [3] is reported as “exhibited neuroprotective activity”.
In the case of SLGAEQRTESIIHRALYYDLISSPDIHGT [29-mer], the “photoreceptor cell death (PSVue 550 fluorescence fundoscopy) relative to vehicle” value ([2]; daily eye drops 5 μl of 1 mg/ml in HBSS from P15, P21, n = 3 retinas per genotype) is reported as “no rescue in photoreceptor cell death”.
In the case of “AlexaFl-QRTESIIHRALYYDLIS-COOH [AlexaFl-488-17-mer, 17-mer conjugated to Alexa Fluor 488 dye]”, the “neuroprotective activity of labelled peptides as assessed by ERG” value [3] is reported as “exhibited neuroprotective activity”.
